Ten molecules from PubChem BioAssay (NCI) can be followed below.

Some test systems named below: HCC-2998 colon; HCT-15 colon; SF-268 CNS; RXF 393 renal; SK-MEL-2 melanoma; OVCAR-8 ovarian; SW-620 colon; 786-0 renal; U251 CNS; RPMI-8226 leukemia.
Common to all, as to test: DTP human tumour cell line panel, 48 h

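The compound was tested at five concentrations on cells cultured in 96-well plates, with a 48-hour exposure period. Abbreviation: GI50, concentration required for 50% inhibition of growth. At the TGI there is no net growth.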

As a reminder, the TGI is the concentration giving total growth inhibition. As to `COc1cc(CC(=O)O)c([N+](=O)[O-])cc1OC`, the TGI with HCC-2998 colon, in the test on HCT-15 colon, in the test with SF-268 CNS, in the test with RXF 393 renal, in the test with SK-MEL-2 melanoma and in the test on OVCAR-8 ovarian was greater than 100 µM in each case. The TGI in the test on SW-620 colon, with 786-0 renal, with U251 CNS and in the test with RPMI-8226 leukemia was greater than 100 µM throughout.

The GI50 is the concentration giving 50% growth inhibition. As for `O=C(CN1CCN(C(=O)c2ccco2)CC1)Nc1ccc(Cl)cc1C(=O)c1ccccc1Cl`, the GI50 in the test on HCC-2998 colon is 14.8 µM; in the test on HCT-15 colon, 5.14 µM; in the test on SF-268 CNS, 14.7 µM; with RXF 393 renal it was 3.85 µM; with SK-MEL-2 melanoma, 3.14 µM; in the test on OVCAR-8 ovarian, 11.5 µM. The GI50 in the test with SW-620 colon is 12 µM; with 786-0 renal, 13.6 µM; with U251 CNS, 8 µM; in the test on RPMI-8226 leukemia it was 1.33 µM. In addition, the TGI was 29.4 µM in the test on HCC-2998 colon; 39.7 µM in the test on HCT-15 colon; 43.1 µM in the test with SF-268 CNS; 18 µM in the test with RXF 393 renal; 17.5 µM in the test on SK-MEL-2 melanoma; 53.8 µM in the test with OVCAR-8 ovarian. Besides, the TGI amounted to 30.6 µM in the test on SW-620 colon, 42.5 µM with 786-0 renal, 23.6 µM in the test with U251 CNS and 12.1 µM in the test on RPMI-8226 leukemia.

As for `O=C(CC(=O)c1cccc([N+](=O)[O-])c1)C(=O)Nc1ccccc1`, the TGI with HCC-2998 colon, in the test on HCT-15 colon, in the test on SF-268 CNS, in the test with RXF 393 renal, in the test on SK-MEL-2 melanoma and in the test with OVCAR-8 ovarian was greater than 100 µM in each case. The TGI in the test on SW-620 colon, with 786-0 renal, in the test with U251 CNS and in the test with RPMI-8226 leukemia was greater than 100 µM each time.

For `COC(=O)C(C(=O)C(=O)Nc1ccccc1C)c1nc2ccc([N+](=O)[O-])cc2[nH]c1=O` (stereo not given), the TGI in the test with HCC-2998 colon, with HCT-15 colon, with SF-268 CNS, in the test with RXF 393 renal, in the test with SK-MEL-2 melanoma and in the test on OVCAR-8 ovarian was greater than 100 µM throughout. Also, the TGI in the test with SW-620 colon, in the test on 786-0 renal, in the test with U251 CNS and in the test on RPMI-8226 leukemia was greater than 100 µM each time.

On to `COc1cc(C)[nH]c(=O)c1CNC(=O)c1c(C)n([C@H](C)C2CCN(CC(F)(F)F)CC2)c2ccccc12`, for which the GI50 in the test with HCC-2998 colon is greater than 100 µM; in the test on HCT-15 colon, 44 µM; in the test on SF-268 CNS, 80.6 µM; in the test on RXF 393 renal, 21.7 µM; in the test on SK-MEL-2 melanoma, 47.3 µM; with OVCAR-8 ovarian, greater than 100 µM. For the same molecule, the GI50 in the test on SW-620 colon was 65.3 µM; with 786-0 renal, 60.3 µM; in the test with U251 CNS, 90.6 µM; with RPMI-8226 leukemia it was 32.5 µM. For the same molecule, the TGI is greater than 100 µM in the test on HCC-2998 colon; greater than 100 µM with HCT-15 colon; greater than 100 µM with SF-268 CNS; 99.5 µM in the test with RXF 393 renal; greater than 100 µM in the test on SK-MEL-2 melanoma; greater than 100 µM in the test with OVCAR-8 ovarian. For the same molecule, the TGI in the test with SW-620 colon, in the test with 786-0 renal, in the test with U251 CNS and in the test with RPMI-8226 leukemia was greater than 100 µM in each case.

With `CN(C)CCCCNc1ccc(NCCCCN(C)C)c2c1C(=O)c1c(O)ccc(O)c1C2=O`, the GI50 is 1.58 µM with HCC-2998 colon; 1.55 µM in the test with HCT-15 colon; 10.4 µM in the test with SF-268 CNS; 1.75 µM in the test with RXF 393 renal; 18 µM in the test on SK-MEL-2 melanoma; 1.55 µM in the test on OVCAR-8 ovarian. Further, the GI50 is 1.51 µM in the test on SW-620 colon, 1.76 µM with 786-0 renal, 1.69 µM in the test on U251 CNS and 2.54 µM in the test with RPMI-8226 leukemia. Moreover, the TGI with HCC-2998 colon was 2.93 µM; in the test on HCT-15 colon, 2.93 µM; in the test with SF-268 CNS, 22.1 µM; with RXF 393 renal, 11.2 µM; with SK-MEL-2 melanoma, 32.5 µM; in the test with OVCAR-8 ovarian it was 2.94 µM. For the same molecule, the TGI is 2.83 µM with SW-620 colon, 3.14 µM with 786-0 renal, 3.08 µM in the test with U251 CNS and 6.49 µM in the test with RPMI-8226 leukemia.

Consider `COc1cc2c(cc1[N+](=O)[O-])C(=O)C(Br)(Br)CCC2`, for which the TGI in the test with HCC-2998 colon turned out to be 32.5 µM; with HCT-15 colon it was 3.67 µM; in the test on SF-268 CNS, 15.6 µM; in the test with RXF 393 renal, 4.51 µM; with SK-MEL-2 melanoma, 4.8 µM; with OVCAR-8 ovarian it was 5.54 µM. The TGI came out at 3.99 µM in the test with SW-620 colon, 2.73 µM in the test with 786-0 renal, 9.04 µM in the test with U251 CNS and 4.07 µM in the test on RPMI-8226 leukemia.

Consider `Cc1cc(C)c2c(c1)N(C)c1ncnc(-n3cnc4cc(C)ccc43)c1CC2C` (stereo not given), for which the GI50 was 4.05 µM in the test on HCC-2998 colon; 3.58 µM with HCT-15 colon; 6.04 µM with SF-268 CNS; 2.66 µM in the test on RXF 393 renal; 4.21 µM with SK-MEL-2 melanoma; 3.79 µM in the test on OVCAR-8 ovarian. The GI50 was 4.1 µM with SW-620 colon, 3.53 µM in the test with 786-0 renal, 3.55 µM in the test on U251 CNS and 2.59 µM with RPMI-8226 leukemia. The TGI is 61.8 µM in the test on HCC-2998 colon; 36.3 µM with HCT-15 colon; greater than 100 µM in the test on SF-268 CNS; 9.06 µM in the test on RXF 393 renal; 26.6 µM with SK-MEL-2 melanoma; 20 µM with OVCAR-8 ovarian. In addition, the TGI in the test on SW-620 colon is 64.1 µM; in the test on 786-0 renal it was 15.4 µM; in the test on U251 CNS, 19.4 µM; with RPMI-8226 leukemia, 9.08 µM.

Take `CN(C)c1ccc(/C=c2/c3cc(O)ccc3n3c2cc(-c2ccccc2)[n+]3C)cc1`: the TGI was greater than 100 µM in the test with HCC-2998 colon; greater than 100 µM in the test on HCT-15 colon; 1.55 µM in the test with SF-268 CNS; 3.54 µM with RXF 393 renal; 2.55 µM with SK-MEL-2 melanoma; 2.03 µM in the test on OVCAR-8 ovarian. For the same molecule, the TGI in the test on U251 CNS is 1.52 µM. Besides, the GI50 in the test on SW-620 colon was 1.77 µM; in the test on 786-0 renal, 1.31 µM; in the test on RPMI-8226 leukemia, 1.35 µM.

Take `O=C1c2ccc3c4c(ccc(c24)C(=O)N1CCNCc1ccccc1)C(=O)N(CCNCc1ccccc1)C3=O`: the GI50 is 1.74 µM in the test on HCC-2998 colon; 1.43 µM in the test on HCT-15 colon; 2.76 µM with SF-268 CNS; 1.41 µM in the test with RXF 393 renal; 2.23 µM in the test on SK-MEL-2 melanoma; 1.2 µM in the test on OVCAR-8 ovarian. Also, the GI50 was 0.306 µM in the test on SW-620 colon, 1.89 µM with 786-0 renal, 2.02 µM with U251 CNS and 2 µM with RPMI-8226 leukemia. The TGI with HCC-2998 colon was found to be 3.15 µM; with HCT-15 colon, 2.92 µM; in the test on SF-268 CNS it was 14.7 µM; in the test with RXF 393 renal it was 4.21 µM; in the test with SK-MEL-2 melanoma it was 5.81 µM; in the test with OVCAR-8 ovarian, 4.26 µM. For the same molecule, the TGI came out at 1.37 µM in the test with SW-620 colon, 3.59 µM in the test with 786-0 renal, 5.42 µM with U251 CNS and 5.12 µM with RPMI-8226 leukemia.
